Our source for the EC50 values is patent publication US20250325684A1, “POTENT ANTI-CANCER CYCLOTIDES” (University of Southern California, priority 2022, published 2025).

One test has as its system HPAF-II. Put plainly: MTT cell viability, HPAF-II cells. The settings on record: HPAF-II pancreatic ductal adenocarcinoma, p53 Mutant. The format is cell-based, human. As for the experimental part:
(§1) Cell viability assay in several human cancer cell lines (See Tables 1 to 10). Cell lines were cultured in RPMI 1640 (or recommended medium when indicated) medium supplemented with 10% fetal calf serum, penicillin (50 IU/mL) and streptomycin ([…]) at 37° C. in 5% CO2. Cell viability studies was carried using the MTT (3-(4,5-dimethylthiazol-2-yl)-2,5-diphenyltetrazolium bromide) assay as previously described (31). Briefly, ≈2×10^3 CRC cells were be seeded in 96-well microtiter plates in 100 μL RPMI 1640 in the presence of 10% calf serum. […] After 1 h, 210 μL/well of full complemented media was added, the cells were grown for 48 h and then treated with 20 μL of a solution of MTT (5 mg/mL) for 2 h. The medium was discarded and DMSO ([…]) was added to each well and incubated with gentle shaking for 20 min at room temperature. The absorbance at 595 nm of the solution is analyzed using a Tecan Genios Multifunctional Microplate Reader (Tecan System Inc) and the background at 670 nm subtracted. RNA-Seq analysis was performed using state-of-the-art bioinformatics tools. Briefly, raw RNA-Seq reads were mapped to human genome (hg38) using STAR aligner (v2.7.3a). Gencode Release 36 reference was used for annotation. Transcript and gene expression levels were quantified using the IsoEM (37) with default parameters. Counts per million (CPM) method is used for normalization. Differential expression was done using DESeq2 with default parameters. Genes involved in different biological pathways (human) were searched from Geneontology (http://geneontology.org/). Bioinformatics results can be validated by using Partek Flow (v10.0.21.0912), a bioinformatics pipeline developed by Zymo Research (https://www.zymoresearch.com/).
(§2) Cell viability was evaluated using the MTT assay as described above.

The next test relates to SW1990. Put plainly: MTT cell viability, SW1990 cells. Format: cell-based, human. The settings on record: SW1990 pancreatic adenocarcinoma, p53 Mutant (Deletion). The method, then:
as §1, §2

The subject of the next test is NIHOVCAR3. As to the kind of experiment: MTT cell viability, NIHOVCAR3 ovarian cells. Format: cell-based, human. As to conditions: p53 Mutant. As for the experimental part: (§3) Cell viability assay in several human cancer cell lines (See Tables 1 to 10). Cell lines were cultured in RPMI 1640 (or recommended medium when indicated) medium supplemented with 10% fetal calf serum, penicillin (50 IU/mL) and streptomycin ([…]) at 37° C. in 5% CO2. Cell viability studies was carried using the MTT (3-(4,5-dimethylthiazol-2-yl)-2,5-diphenyltetrazolium bromide) assay as previously described (31). Briefly, ≈2×10^3 CRC cells were be seeded in 96-well microtiter plates in 100 μL RPMI 1640 in the presence of 10% calf serum. After 24 h incubation the cells were washed with PBS and treated with 30 μL/well of PBS or RPMI 1640 (or recommended) media containing cyclotides MCo-52, MCoTI-I (used as negative control), nutlin-3a (used as positive control) or MI-77301 (used as positive control for p53-mutated or p53-null cells) at the indicated doses for 1 h at 37° C. in 5% CO2. After 1 h, 210 μL/well of full complemented media was added, the cells were grown for 48 h and then treated with 20 μL of a solution of MTT (5 mg/mL) for 2 h. The medium was discarded and DMSO ([…]) was added to each well and incubated with gentle shaking for 20 min at room temperature. The absorbance at 595 nm of the solution is analyzed using a Tecan Genios Multifunctional Microplate Reader (Tecan System Inc) and the background at 670 nm subtracted. RNA-Seq analysis was performed using state-of-the-art bioinformatics tools. Briefly, raw RNA-Seq reads were mapped to human genome (hg38) using STAR aligner (v2.7.3a). Gencode Release 36 reference was used for annotation. Transcript and gene expression levels were quantified using the IsoEM (37) with default parameters. Counts per million (CPM) method is used for normalization. Differential expression was done using DESeq2 with default parameters. Genes involved in different biological pathways (human) were searched from Geneontology (http://geneontology.org/). Bioinformatics results can be validated by using Partek Flow (v10.0.21.0912), a bioinformatics pipeline developed by Zymo Research (https://www.zymoresearch.com/).
(§4) Tables 1 through 10 show in vitro activity of cyclotide MCo-52-2-cTAT against different human cancer cell lines, some with null-, mutated, or wildtype p53 phenotypes. Cell viability was evaluated using the MTT assay as described above.

The test system of the next test is DU145. Put plainly: MTT cell viability, DU145 cells. The format is cell-based. The settings on record: DU145 prostate carcinoma, p53 Mutant, read-out: Cell viability, Human Prostate Cancer Cells. As for the experimental part: as §3, §4
In another test the test system is A2780. Put plainly: MTT cell viability, A2780 ovarian cells. Format: cell-based, human. The settings on record: p53 WT. As for the experimental part: as §3, §4
In another test the test system is CFPAC-1. Put plainly: MTT cell viability, CFPAC-1 cells. Format: cell-based, human. As to conditions: CFPAC-1 pancreatic ductal adenocarcinoma, p53 Mutant. As for the experimental part:
as §1, §2

The test system of another test is BxPC-3. As to the kind of experiment: MTT cell viability, BxPC-3 cells. The format is cell-based, human. The settings on record: BxPC-3 pancreatic ductal adenocarcinoma, p53 Mutant. As for the experimental part:
as §1, §2

For the next test, the system named is MIA PaCa-2. As to the kind of experiment: MTT cell viability, MIA PaCa-2 cells. The format is cell-based, human. The settings on record: MIA PaCa-2 pancreatic ductal adenocarcinoma, p53 Mutant. As for the experimental part: as §1, §2
The test system of the next test is SKOV 3. Put plainly: MTT cell viability, SKOV 3 ovarian cells. Format: cell-based, human. As to conditions: p53 Mutant. The method, then:
as §3, §4

A further test concerns PC-3. Put plainly: MTT cell viability, PC-3 cells. The settings on record: PC-3 prostate carcinoma, p53 Mutant, read-out: Cell viability, Human Prostate Cancer Cells. The format is cell-based. The method, then:
as §3, §4

The next test relates to HT29. Put plainly: MTT cell viability, HT29 cells. The settings on record: HT29 colon adenocarcinoma, p53 Mutant. Format: cell-based, human. As for the experimental part:
as §1, §2

The subject of another test is ES-2. As to the kind of experiment: MTT cell viability, ES-2 ovarian cells. Format: cell-based, human. The settings on record: p53 Mutant. As for the experimental part: as §3, §4
Another test deals with SW620. Put plainly: MTT cell viability, SW620 cells. The format is cell-based, human. As to conditions: SW620 colon adenocarcinoma, p53 Mutant. The method, then:
as §1, §2

The test system of another test is LNCaP. Put plainly: MTT cell viability, LNCaP cells. The format is cell-based. The settings on record: LNCaP prostate carcinoma, p53 WT, read-out: Cell viability, Human Prostate Cancer Cells. As for the experimental part: as §3, §4
In another test the test system is SW480. As to the kind of experiment: MTT cell viability, SW480 cells. The format is cell-based, human. As to conditions: SW480 colon adenocarcinoma, p53 Mutant. As for the experimental part:
as §1, §2

A further test concerns LoVo. As to the kind of experiment: MTT cell viability, LoVo cells. The format is cell-based, human. As to conditions: LoVo colon adenocarcinoma, p53 WT. The method, then:
as §1, §2

The next test relates to AsPC-1. Put plainly: MTT cell viability, AsPC-1 cells. The format is cell-based, human. As to conditions: AsPC-1 pancreatic ductal adenocarcinoma, p53 Mutant. As for the experimental part:
as §1, §2

For another test, the system named is Caco-2. Put plainly: MTT cell viability, Caco-2 cells. Format: cell-based, human. As to conditions: Caco-2 colon adenocarcinoma, p53 Mutant. The method, then: as §1, §2

Numbered stars: 1 amine (or outer) side, 2 acyl side, 3 side chain; on linkers, the order of the positions; unused ones are H or OH. Bridge positions count the residues as written; N and C are the ends. Square brackets hold non-standard residues; d marks the D form. Peptide text beside a SMILES is read from it. I, II: the chains in the order shown. X1 = O=C(CCc1cn(CCOCCOCCOCCC(=O)[*:2])nn1)[*:1]; isoGln = NC(=O)[C@H](CCC(=O)[*:2])N[*:1]

With `N=C(N)NCCC[C@@H]1NC(=O)[C@@H](CCCNC(=N)N)NC(=O)[C@H](CCCCN)NC(=O)[C@@H](N)CCCCNC(=O)CC[C@@H](C(=O)O)NC(=O)[C@@H](CCCNC(=N)N)NC(=O)[C@H](CCCNC(=N)N)NC(=O)[C@@H](CCCCN)NC(=O)[C@H](CCCCN)NC(=O)[C@@H](CCCNC(=N)N)NC(=O)CNC(=O)[C@@H](CCCNC(=N)N)NC1=O` [cTAT] (H-KK[dR]R[dR]G[dR]K[dK]R[dR]E-OH; lactam 1-12; N-terminus and C-terminus assumed), the EC50 in the test with HPAF-II, in the test on SW1990, in the test with NIHOVCAR3, in the test with DU145, in the test on A2780 and in the test on CFPAC-1 was above 100 µM each time. Also, the EC50 in the test with BxPC-3, in the test on MIA PaCa-2, in the test on SKOV 3, in the test on PC-3, with HT29 and with ES-2 was above 100 µM throughout. Besides, the EC50 in the test on SW620, in the test with LNCaP, with SW480, in the test with LoVo, in the test on AsPC-1 and with Caco-2 was above 100 µM throughout.

As for `COc1ccc(C2=N[C@@H](c3ccc(Cl)cc3)[C@@H](c3ccc(Cl)cc3)N2C(=O)N2CCNC(=O)C2)c(OC(C)C)c1` [Nutlin 3A], the EC50 in the test with HPAF-II was above 50 µM; with SW1990, above 100 µM; in the test on NIHOVCAR3 it was 57.7 ± 0.1 µM; with DU145 it was above 100 µM; in the test with A2780, 9.3 ± 0.5 µM; in the test on CFPAC-1, above 50 µM. The EC50 in the test on BxPC-3 was 38.5 ± 5.1 µM; in the test with MIA PaCa-2, above 50 µM; in the test on SKOV 3 it was above 100 µM; in the test with PC-3, above 100 µM; in the test on HT29, above 100 µM; in the test with ES-2 it was 92.3 ± 1.2 µM. Further, the EC50 in the test with SW620 was above 100 µM; in the test with LNCaP, 19.7 ± 1.3 µM; in the test with SW480, 58.7 ± 7.5 µM; in the test on LoVo, 1.5 ± 0.1 µM; in the test with AsPC-1, above 100 µM; with Caco-2, above 50 µM.

For the compound “I: cyclo(ACICRHDSYCGSGSDGGVCPNLYLLCRRDKDCPG) / II: KK[dR]R[dR]G[dR]K[dK]R[dR][isoGln] (disulfide I:2-I:19, I:4-I:26, I:10-I:32; linker I:30-II:N via X1; lactam II:1-II:C) [Cyclotide 52-2-cTAT]”, the EC50 was 14.6 ± 1.8 µM in the test with HPAF-II; 11.9 ± 1.3 µM in the test with SW1990; 7.8 ± 0.1 µM in the test on NIHOVCAR3; 37 ± 1.2 µM with DU145; 9.7 ± 0.5 µM with A2780; 13.4 ± 1.8 µM with CFPAC-1. The EC50 with BxPC-3 is 10.6 ± 1 µM; in the test with MIA PaCa-2 it was 15.4 ± 1.6 µM; in the test on SKOV 3 it was 19.1 ± 0.1 µM; in the test with PC-3, 23.2 ± 0.6 µM; in the test on HT29, 9.9 ± 0.9 µM; in the test with ES-2 it was 6.38 ± 0.1 µM. The EC50 with SW620 was found to be 15.3 ± 2 µM; with LNCaP, 6.3 ± 1.1 µM; in the test with SW480, 10.9 ± 1.3 µM; in the test with LoVo it was 10.7 ± 0.9 µM; in the test on AsPC-1, 11.5 ± 1.5 µM; in the test with Caco-2, 11.7 ± 0.8 µM.
